Values quoted from earlier work, collected in patent publication US8729024B2, “Targeted delivery of pharmaceutical compounds” (The Resesarch Foundation of State University of New York, priority 2006, dated 2014).

Tested on: animal models of Duchenne muscular dystrophy (DMD), multiple sclerosis, myasthenia gravis, hearing loss and traumatic nerve injury

CC(=O)N[C@@H](CC(C)C)C(=O)N[C@@H](CC(C)C)C(=O)N[C@H](C=O)CCCNC(=N)N [leupeptin]
therapeutic effect in animal models: therapeutic benefit
